Data taken from patent US20260226073A1 (AURIGENE ONCOLOGY LIMITED, priority 2023, published 2026).
pEC50, pIC50: −log10 of the molar value.

Experiments:
[1] = target: T1, human recombinant CBL-b (human Biotin CBL-b recombinant protein a.a. 39-426) (Homo sapiens, UniProt Q13191); assay: Biochemical assay for CBL-b inhibition (ligand displacement TR-FRET); format: binding; settings: 50 nM CBL-b, 0.3 μM Bodipy FL-Probe, read-out: IC50 (CBL-b inhibition, group)
T1 construct: human Biotin CBL-b recombinant protein a.a; 39-426; Biotin (biotinylated); made in house
T1 sequence (Q13191 39-426): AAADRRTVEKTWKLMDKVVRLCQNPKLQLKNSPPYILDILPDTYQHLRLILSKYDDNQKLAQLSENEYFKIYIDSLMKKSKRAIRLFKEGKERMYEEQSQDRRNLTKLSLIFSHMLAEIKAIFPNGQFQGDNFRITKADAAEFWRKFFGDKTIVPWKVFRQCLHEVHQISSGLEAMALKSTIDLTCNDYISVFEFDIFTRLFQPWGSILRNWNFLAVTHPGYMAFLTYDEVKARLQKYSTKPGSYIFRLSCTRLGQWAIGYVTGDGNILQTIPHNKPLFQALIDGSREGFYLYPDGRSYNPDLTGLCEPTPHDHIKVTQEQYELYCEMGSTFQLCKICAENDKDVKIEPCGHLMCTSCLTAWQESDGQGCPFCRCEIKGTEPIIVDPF
Outline: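 Ligand-displacement TR-FRET: 0.3 μM Bodipy FL probe competes with compound for 50 nM biotin-CBL-b (aa 39-426) after a 60 min RT compound pre-incubation; terbium-streptavidin detection, 60 min each step. Dose-response sigmoidal fitting gave IC50 and % maximum inhibition.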

[2] = system: NFAT signaling pathway in Jurkat NFAT reporter cells; assay: Jurkat NFAT reporter assay; format: cell-based; settings: Homo sapiens, 30 min with compound, then soluble anti-human CD3/CD28 antibody for 6 hours, luciferase readout, read-out: EC50 (Group)
Outline: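 Results are expressed as fold change relative to stimulated, inhibitor-free cells. Stimulation was 6 h with soluble anti-human CD3/CD28 antibody after a 30-min exposure of 1×10^5 NFAT-RE luciferase Jurkat reporter cells per well to the Cbl-b inhibitor; signal read by Bio-Glo bioluminescence.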

Row | Compound | pIC50 [1] | pEC50 [2]
1 | C[C@H]1C[C@H](C)CN(Cc2cc(Cl)nc(N3Cc4ccc(C5(Cc6nncn6C)COC5)cc4C3=O)c2)C1 [Compound 60, 2-(6-Chloro-4-(((3S,5S)-3,5-dimethylpiperidin-1-yl)methyl)pyridin-2-yl)-6-(3-((4-methyl-4H-1,2,4-triazol-3-yl)methyl)oxetan-3-yl)isoindolin-1-one] | > 7.10 | > 6.52
2 | Cn1cnnc1CC1(c2ccc3c(c2)C(=O)N(c2cc(CN4CC[C@H](F)C4)cc(C(F)(F)F)n2)C3)COC1 [Compound 61, (S)-2-(4-((3-Fluoropyrrolidin-1-yl)methyl)-6-(trifluoromethyl)pyridin-2-yl)-6-(3-((4-methyl-4H-1,2,4-triazol-3-yl)methyl)oxetan-3-yl)isoindolin-1-one] | 5.30 to 6.52 | 5.00 to 6.00
3 | Cn1cnnc1CC1(c2ccc3c(c2)C(=O)N(c2cc(CN4CCC5(CC5)C4)cc(Cl)n2)C3)COC1 [Compound 62, 2-(4-((5-Azaspiro[2.4]heptan-5-yl)methyl)-6-chloropyridin-2-yl)-6-(3-((4-methyl-4H-1,2,4-triazol-3-yl)methyl)oxetan-3-yl)isoindolin-1-one] | 6.52 to 7.10 | 6.00 to 6.52
4 | Cn1cnnc1CC1(c2ccc3c(c2)C(=O)N(c2cc(CN4CCCCC4)cc(Cl)n2)C3)COC1 [Compound 64, 2-(6-Chloro-4-(piperidin-1-ylmethyl)pyridin-2-yl)-6-(3-((4-methyl-4H-1,2,4-triazol-3-yl)methyl)oxetan-3-yl)isoindolin-1-one] | > 7.10 | > 6.52
5 | C[C@@H]1C[C@H](C)CN(Cc2cc(N3Cc4ccc(C5(Cc6nncn6C)COC5)cc4C3=O)cc(C(F)(F)F)c2)C1 [Compound 65, 2-(3-(((3S,5R)-3,5-Dimethylpiperidin-1-yl)methyl)-5-(trifluoromethyl)phenyl)-6-(3-((4-methyl-4H-1,2,4-triazol-3-yl)methyl)oxetan-3-yl)isoindolin-1-one] | 6.52 to 7.10 | 6.00 to 6.52
6 | Cn1cnnc1CC1(c2ccc3c(c2)C(=O)N(c2cc(CNCCC(F)(F)F)cc(Cl)n2)C3)COC1 [Compound 66, 2-(6-Chloro-4-(((3,3,3-trifluoropropyl)amino)methyl)pyridin-2-yl)-6-(3-((4-methyl-4H-1,2,4-triazol-3-yl)methyl)oxetan-3-yl)isoindolin-1-one] | > 7.10 | > 6.52
7 | C[C@H]1CCN(Cc2cc(Cl)nc(N3Cc4ccc(C5(Cc6nncn6C)COC5)cc4C3=O)c2)C1 [Compound 67, (S)-2-(6-Chloro-4-((3-methylpyrrolidin-1-yl)methyl)pyridin-2-yl)-6-(3-((4-methyl-4H-1,2,4-triazol-3-yl)methyl)oxetan-3-yl)isoindolin-1-one] | 6.52 to 7.10 | 6.00 to 6.52
8 | C[C@@H]1CCN(Cc2cc(Cl)nc(N3Cc4ccc(C5(Cc6nncn6C)COC5)cc4C3=O)c2)C1 [Compound 68, (R)-2-(6-Chloro-4-((3-methylpyrrolidin-1-yl)methyl)pyridin-2-yl)-6-(3-((4-methyl-4H-1,2,4-triazol-3-yl)methyl)oxetan-3-yl)isoindolin-1-one] | 6.52 to 7.10 | 6.00 to 6.52
9 | Cn1cnnc1CC1(c2ccc3c(c2)C(=O)N(c2cc(CN4CC5CC5C4)cc(C(F)(F)F)n2)C3)COC1 (centres unmarked) [Compound 71, 2-(4-((3-Azabicyclo[3.1.0]hexan-3-yl)methyl)-6-(trifluoromethyl)pyridin-2-yl)-6-(3-((4-methyl-4H-1,2,4-triazol-3-yl)methyl)oxetan-3-yl)isoindolin-1-one] | 5.30 to 6.52 | 5.00 to 6.00
10 | C[C@H]1CCCN(Cc2cc(C3CC3)nc(N3Cc4ccc(C5(Cc6nncn6C)COC5)cc4C3=O)c2)C1 [Compound 73, (S)-2-(6-Cyclopropyl-4-((3-methylpiperidin-1-yl)methyl)pyridin-2-yl)-6-(3-((4-methyl-4H-1,2,4-triazol-3-yl)methyl)oxetan-3-yl)isoindolin-1-one] | 6.52 to 7.10 | 5.00 to 6.00
